In patent US20260183405A1, “SMALL MOLECULE-DRUG-CONJUGATES CLEAVABLE IN A TUMOR MICROENVIRONMENT” (priority 2022, published 2026):
Like-named read-outs stand apart in the source and are kept apart here.

Tests used:
786-O = test: Cytotoxicity in vitro in the presence and absence of elastase (MTT assay); format: cell-based; settings: 786-O cells, 72 h incubation
Experimental: (§1) Cultivation of cells was performed according to standard procedures with the media recommended by the provider. The cells, in a total volume of 100 μL, were seeded in a 96-well plate with a white bottom (#3610). After a 24 h incubation period at 37° C. and 5% CO2, the medium was exchanged by adding 90 μL fresh medium. The treatment started by adding the test compound in 10 μL of culture medium to the cells in triplicates. Concentrations ranging from 10^−5 M to 10^−13 M were chosen. Two identically treated sets of samples were prepared. One set was treated with the test compound alone, whereas to the second set the compound and 10 nM elastase (NE) was added followed by a 72 h incubation period at 37° C. and 5% CO2. The proliferation was detected using the MTT assay (ATCC). At the end of the incubation period the MTT reagent was added to all samples for 4h. Lysis of the cells followed by addition of the detergent was done overnight. The formed dye was detected at 570 nm. The proliferation of untreated but otherwise identically handled cells was defined as the 100% value. The dose response curves allowed the determination of the respective IC50 values. […]

SUM149PT = test: as above; format: cell-based; settings: SUM149PT cells, 72 h incubation
Experimental: as §1

NCI-H292 = test: as above; format: cell-based; settings: NCI-H292 cells, 72 h incubation
Experimental: as §1

HT29 = test: as above; format: cell-based; settings: HT29 cells, 72 h incubation
Experimental: as §1

[1] = Pharmacokinetics in rat after intravenous administration; format: in vivo; settings: plasma, male rats, intravenous bolus 0.5 mg/kg; for clearance: read-out: CL plasma; for Vd: read-out: VSS
Experimental: Male rats (n=3) were given an intravenous 0.5 mg/kg bolus dose of test article dissolved in plasma with 1% DMSO and 2% ethanol. Serial blood samples were collected up to 24 hours post-dose. Plasma was harvested from blood samples and stored frozen until sample analysis. Test article plasma concentrations were analyzed by LC/MS/MS. Pharmacokinetic parameters were calculated using non-compartmental analysis.

[2] = compound alone, read-out: IC50 without neutrophil elastase
[3] = with 10 nM elastase (NE), read-out: IC50 with neutrophil elastase

Row | SMILES | IC50 (786-O; [2]) [nM] | IC50 (786-O; [3]) [nM] | IC50 (SUM149PT; [2]) [nM] | IC50 (SUM149PT; [3]) [nM] | IC50 (NCI-H292; [2]) [nM] | IC50 (NCI-H292; [3]) [nM] | IC50 (HT29; [2]) [nM] | IC50 (HT29; [3]) [nM] | AUC [1] [ng·h/mL] | half-life [1] [h] | clearance [1] [mL/min/kg] | Vd [1] [L/kg]
1 | CC[C@@]1(OC(=O)[C@@H](NC(=O)[C@@H]2CCCN2C(=O)[C@H](CC(=O)O)NC(=O)CCOCCOCCOCCNC(=O)CCC(=O)Nc2nnc(S(N)(=O)=O)s2)C(C)C)C(=O)OCc2c1cc1n(c2=O)Cc2c-1nc1cc(F)c(C)c3c1c2[C@@H](N)CC3 [Compound 12, sodium (1S,9S)-1-amino-9-ethyl-5-fluoro-4-methyl-10,13-dioxo-2,3,9,10,13,15-hexahydro-1H,12H-benzo[de]pyrano[3′,4′:6,7]indolizino[1,2-b]quinolin-9-yl 1-{(2S)-2-(carboxylatomethyl)-4,17,20-trioxo-20-[(5-sulfamoyl-1,3,4-thiadiazol-2-yl)amino]-7,10,13-trioxa-3,16-diazaicosanan-1-oyl}-L-prolyl-L-valinate] | 100 to 999 | 1 to 9.9 | 100 to 999 | 1 to 9.9 | 100 to 999 | 1 to 9.9 | > 1000 | 10 to 99 |  |  |  | 
2 | CCc1c2c(nc3ccccc13)-c1cc3c(c(=O)n1C2)COC(=O)[C@@]3(CC)OC(=O)[C@@H](NC(=O)[C@@H]1CCCN1C(=O)[C@H](CC(=O)O)NC(=O)CCOCCOCCOCCNC(=O)NCCCC[C@H](NC(=O)N[C@@H](CCC(=O)O)C(=O)O)C(=O)O)C(C)C [Compound 5, tetrasodium (4S)-4,11-diethyl-3,14-dioxo-3,4,12,14-tetrahydro-1H-pyrano[3′,4′:6,7]indolizino[1,2-b]quinolin-4-yl 1-[(2S,23S,27S)-23,27,29-tricarboxylato-2-(carboxylatomethyl)-4,17,25-trioxo-7,10,13-trioxa-3,16,18,24,26-pentaazanonacosanan-1-oyl]-L-prolyl-L-valinate] |  |  |  |  |  |  |  |  | 1000 to 10000 | 1 to 5 | 0.5 to 5 | 0.1 to 0.3
3 | CCc1c2c(nc3ccccc13)-c1cc3c(c(=O)n1C2)COC(=O)[C@@]3(CC)OC(=O)[C@@H](NC(=O)[C@@H]1CCCN1C(=O)[C@H](CC(=O)[O-])NC(=O)CCOCCOCCOCCNC(=O)CCCC(=O)NCCCC[C@H](NC(=O)CCOCCOCCOCCNC(=O)CCC(=O)Nc1cccc2c(C(=O)NCC(=O)N3CC(F)(F)C[C@H]3C#N)ccnc12)C(=O)NCCCCCCCC(=O)[O-])C(C)C.[Na+].[Na+] [Compound 21, disodium (4S)-4,11-diethyl-3,14-dioxo-3,4,12,14-tetrahydro-1H-pyrano[3′,4′:6,7]indolizino[1,2-b]quinolin-4-yl 1-[(2S,27S)-27-[(7-carboxylatoheptyl)carbamoyl]-2-(carboxylatomethyl)-45-{[4-({2-[(2S)-2-cyano-4,4-difluoropyrrolidin-1-yl]-2-oxoethyl}carbamoyl)quinolin-8-yl]amino}-4,17,21,29,42,45-hexaoxo-7,10,13,32,35,38-hexaoxa-3,16,22,28,41-pentaazapentatetracontanan-1-oyl]-L-prolyl-L-valinate] | > 1000 | 1 to 9.9 |  |  | 100 to 999 | 1 to 9.9 | > 1000 | 10 to 99 | 1000 to 10000 | 0.5 to 1 | 0.5 to 5 | 0.1 to 0.3
4 | CCCNC(=O)Nc1cccc(S(=O)(=O)Nc2cccc([C@@H](CC(=O)O)NC(=O)Nc3ccc(NC(=O)NCCOCCOCCOCCC(=O)NCCCC[C@H](NC(=O)CCOCCOCCOCCNC(=O)Nc4ccc(NC(=O)N[C@H](CC(=O)O)c5cccc(NS(=O)(=O)c6cccc(NC(=O)NCCC)c6)c5)cc4)C(=O)NCCOCCOCCOCCC(=O)N[C@@H](CC(N)=O)C(=O)N4CCC[C@H]4C(=O)N[C@H](C(=O)NCCCN(C(=O)CO)[C@@H](c4cc(-c5cc(F)ccc5F)cn4Cc4ccccc4)C(C)(C)C)C(C)C)cc3)c2)c1 [Compound 18] |  |  |  |  |  |  |  |  | 100000 to 500000 | 10 to 40 | 0.02 to 0.5 | 0.01 to 0.1
5 | CCCNC(=O)Nc1cccc(S(=O)(=O)Nc2cccc([C@@H](CC(=O)O)NC(=O)Nc3ccc(NC(=O)NCCOCCOCCOCCC(=O)N[C@@H](CC(=O)O)C(=O)N4CCC[C@H]4C(=O)N[C@H](C(=O)NCCCN(C(=O)CO)[C@@H](c4cc(-c5cc(F)ccc5F)cn4Cc4ccccc4)C(C)(C)C)C(C)C)cc3)c2)c1 [Compound 25, disodium 1-[(2S)-2-(carboxylatomethyl)-17-{4-[({(1R)-2-carboxylato-1-[3-({3-[(propylcarbamoyl)amino]benzene-1-sulfonyl}amino)phenyl]ethyl}carbamoyl)amino]anilino}-4,17-dioxo-7,10,13-trioxa-3,16-diazaheptadecanan-1-oyl]-L-prolyl-N-{3-[({1R)-1-[1-benzyl-4-(2,5-difluorophenyl)-1H-pyrrol-2-yl]-2,2-dimethylpropyl}(hydroxyacetyl)amino]propyl}-L-valinamide] |  |  | > 1000 | 1 to 9.9 | > 1000 | 10 to 99 | > 1000 | 1 to 9.9 |  |  |  | 
6 | CCCNC(=O)Nc1cccc(S(=O)(=O)Nc2cccc([C@@H](CC(=O)O)NC(=O)Nc3ccc(NC(=O)NCCOCCOCCOCCC(=O)NCCCC[C@H](NC(=O)CCOCCOCCOCCNC(=O)Nc4ccc(NC(=O)N[C@H](CC(=O)O)c5cccc(NS(=O)(=O)c6cccc(NC(=O)NCCC)c6)c5)cc4)C(=O)NCCOCCOCCOCCC(=O)N[C@@H](CC(=O)O)C(=O)N4CCC[C@H]4C(=O)N[C@H](C(=O)N[C@@H](CCN(C(=O)CO)[C@@H](c4cc(-c5cc(F)ccc5F)cn4Cc4ccccc4)C(C)(C)C)C(=O)NC)C(C)C)cc3)c2)c1 [Compound 27] |  |  |  |  |  |  |  |  | 100000 to 500000 | 10 to 40 | 0.02 to 0.5 | 0.01 to 0.1
7 | CCc1c2c(nc3ccccc13)-c1cc3c(c(=O)n1C2)COC(=O)[C@@]3(CC)OC(=O)[C@@H](NC(=O)[C@@H]1CCCN1C(=O)[C@H](CC(=O)O)NC(=O)CCOCCOCCOCCNC(=O)CCC(=O)Nc1cccc2c(C(=O)NCC(=O)N3CC(F)(F)C[C@H]3C#N)ccnc12)C(C)C [Compound 6, sodium (4S)-4,11-diethyl-3,14-dioxo-3,4,12,14-tetrahydro-1H-pyrano[3′,4′:6,7]indolizino[1,2-b]quinolin-4-yl 1-[(2S)-2-(carboxylatomethyl)-20-{[4-({2-[(2S)-2-cyano-4,4-difluoropyrrolidin-1-yl]-2-oxoethyl}carbamoyl)quinolin-8-yl]amino}-4,17,20-trioxo-7,10,13-trioxa-3,16-diazaicosanan-1-oyl]-L-prolyl-L-valinate] |  |  |  |  |  |  |  |  | < 1000 | < 0.5 | > 5 | 0.3 to 0.9
8 | CCc1c2c(nc3ccccc13)-c1cc3c(c(=O)n1C2)COC(=O)[C@@]3(CC)OC(=O)[C@@H](NC(=O)[C@@H]1CCCN1C(=O)[C@H](CC(=O)[O-])NC(=O)CCOCCOCCOCCNC(=O)[C@H](CCCCNC(=O)CCOCCOCCOCCNC(=O)CCC(=O)Nc1cccc2c(C(=O)NCC(=O)N3CC(F)(F)C[C@H]3C#N)ccnc12)NC(=O)CCOCCOCCOCCNC(=O)CCC(=O)Nc1cccc2c(C(=O)NCC(=O)N3CC(F)(F)C[C@H]3C#N)ccnc12)C(C)C.[Na+] [Compound 20, sodium (4S)-4,11-diethyl-3,14-dioxo-3,4,12,14-tetrahydro-1H-pyrano[3′,4′:6,7]indolizino[1,2-b]quinolin-4-yl 1-[(2S)-15-{[N2,N6-bis(17-{[4-({2-[(2S)-2-cyano-4,4-difluoropyrrolidin-1-yl]-2-oxoethyl}carbamoyl)quinolin-8-yl]amino}-14,17-dioxo-4,7,10-trioxa-13-azaheptadecanan-1-oyl}-L-lysyl]amino)-2-(carboxylatomethyl)-4-oxo-7,10,13-trioxa-3-azapentadecanan-1-oyl]-L-prolyl-L-valinate] | > 1000 | 1 to 9.9 |  |  | 100 to 999 | 1 to 9.9 | > 1000 | 10 to 99 | 1000 to 10000 | 0.5 to 1 | 0.5 to 5 | 0.1 to 0.3
